Assays:
Type in all cases: in vivo
[1] = system: Lucilia cuprina; test: Lucilia cuprina test; conditions: application rate 100 ppm, L1 larvae, minced horsemeat, after 2 days
Description: Solvent: dimethyl sulfoxide To produce a suitable active ingredient formulation, 10 mg of active ingredient are mixed with 0.5 ml of dimethyl sulfoxide, and the concentrate is diluted with water to the desired concentration. About 20 L1 larvae of the Australian sheep blowfly (Lucilia cuprina) are transferred into a test vessel containing minced horsemeat and the active ingredient formulation of the desired concentration. After 2 days, the kill in % is determined. 100% means that all the larvae have been killed; 0% means that no larvae have been killed.

[2] = system: Myzus persicae; test: Myzus persicae oral test; conditions: 120 h, mixed population of green peach aphids, after 5 days, read-out: efficacy; for pest or weed control at 4 ppm: application rate 4 ppm; for pest or weed control at 20 ppm: application rate 20 ppm
Description: Solvent: 100 parts by weight of acetone To produce a suitable active ingredient formulation, 1 part by weight of active ingredient is dissolved with the stated parts by weight of solvent and made up to the desired concentration with water. 50 μl of the active ingredient formulation are transferred into microtitre plates and made up to a final volume of 200 μl with 150 μl of IPL41 insect medium (33%+15% sugar). Subsequently, the plates are sealed with parafilm, which a mixed population of green peach aphids (Myzus persicae) within a second microtitre plate is able to puncture and imbibe the solution through it. After 5 days, the efficacy in % is determined. 100% means that all the aphids have been killed; 0% means that no aphids have been killed.

[3] = system: Phaedon cochleariae; test: Phaedon cochleariae spray test; conditions: application rate 100 g/ha, Chinese cabbage leaf discs, larvae, after 7 days
Description: (§1) Solvent: 78.0 parts by weight of acetone • • 1.5 parts by weight of dimethylformamide Emulsifier: alkylaryl polyglycol ether To produce a suitable active ingredient formulation, 1 part by weight of active ingredient is dissolved with the specified parts by weight of solvent and made up to the desired concentration with water containing an emulsifier concentration of 1000 ppm. To produce further test concentrations, the formulation is diluted with emulsifier-containing water. Discs of Chinese cabbage leaves (Brassica pekinensis) are sprayed with an active ingredient formulation of the desired concentration and, after drying, populated with larvae of the mustard beetle (Phaedon cochleariae). After 7 days, the efficacy in % is determined. 100% means that all the beetle larvae have been killed; 0% means that no beetle larvae have been killed.

[4] = system: Spodoptera frugiperda; test: Spodoptera frugiperda spray test; conditions: application rate 100 g/ha, maize leaf discs, caterpillars, after 7 days
Description: as §1, with “water. Leaf discs” for “water. Discs”, “of maize (Zea mays)” for “of Chinese cabbage leaves (Brassica pekinensis)”, “with caterpillars” for “with larvae”, “the armyworm (Spodoptera frugiperda).” for “the mustard beetle (Phaedon cochleariae).”, “the caterpillars” for “the beetle larvae”, “no caterpillar has” for “no beetle larvae have”

[5] = system: Ctenocephalides felis; test: Ctenocephalides felis in vitro contact test with adult cat fleas; conditions: application rate 5 μg/cm^2 (=500 g/ha), coated glass tube, after 48 h
Description: For the coating of the test tubes, 9 mg of active ingredient are first dissolved in 1 ml of acetone p.a. and then diluted to the desired concentration with acetone p.a. 250 μl of the solution are distributed homogeneously on the inner walls and the base of a 25 ml glass tube by turning and rocking on an orbital shaker (rocking rotation at 30 rpm for 2 h). With 900 ppm of active ingredient solution and internal surface area 44.7 cm^2, given homogeneous distribution, an area-based dose of 5 μg/cm^2 is achieved. After the solvent has evaporated off, the glass tubes are populated with 5-10 adult cat fleas (Ctenocephalides felis), sealed with a perforated plastic lid and incubated in a horizontal position at room temperature and ambient humidity. After 48 h, efficacy is determined. To this end, the tubes are stood upright and the fleas are knocked to the base of the tube. Fleas which remain motionless at the base or move in an uncoordinated manner are considered to be dead or moribund. […] 100% efficacy means that all the fleas were dead or moribund. 0% efficacy means that no fleas were harmed.

[6] = system: Ctenocephalides felis; test: Ctenocephalides felis oral test; conditions: application rate 100 ppm in citrated cattle blood, adult cat fleas, after 2 days
Description: Solvent: dimethyl sulfoxide To produce a suitable active ingredient formulation, 10 mg of active ingredient are mixed with 0.5 ml of dimethyl sulfoxide. Dilution with citrated cattle blood gives the desired concentration. About 20 unfed adult cat fleas (Ctenocephalides felis) are placed into a chamber which is closed at the top and bottom with gauze. A metal cylinder whose bottom end is closed with parafilm is placed onto the chamber. The cylinder contains the blood/active ingredient formulation, which can be imbibed by the fleas through the parafilm membrane. After 2 days, the kill in % is determined. 100% means that all of the fleas have been killed; 0% means that none of the fleas have been killed.

[7] = system: Myzus persicae; test: Myzus persicae spray test; conditions: application rate 100 g/ha, Chinese cabbage leaf discs, all stages, after 5 days
Description: as §1, with “78” for “78.0”, “pekinensis) infested by all stages of the green peach aphid (Myzus persicae)” for “pekinensis)”, “concentration.” for “concentration and, after drying, populated with larvae of the mustard beetle (Phaedon cochleariae).”, “5” for “7”, “aphids” for “beetle larvae”

[8] = system: Musca domestica; test: Musca domestica test; conditions: application rate 100 ppm, adult houseflies, after 2 days
Description: Solvent: dimethyl sulfoxide
To produce a suitable active ingredient formulation, 10 mg of active ingredient are mixed with 0.5 ml of dimethyl sulfoxide, and the concentrate is diluted with water to the desired concentration.
Vessels containing a sponge treated with sugar solution and the active ingredient formulation of the desired concentration are populated with 10 adult houseflies (Musca domestica).
After 2 days, the kill in % is determined. 100% means that all of the flies have been killed; 0% means that none of the flies have been killed.

[9] = system: Rhipicephalus sanguineus; test: Rhipicephalus sanguineus in vitro contact test with adult brown dog ticks; conditions: application rate 5 μg/cm^2 (=500 g/ha), coated glass tube, after 48 h
Description: For the coating of the test tubes, 9 mg of active ingredient are first dissolved in 1 ml of acetone p.a. and then diluted to the desired concentration with acetone p.a. 250 μl of the solution are distributed homogeneously on the inner walls and the base of a 25 ml glass tube by turning and rocking on an orbital shaker (rocking rotation at 30 rpm for 2 h). With 900 ppm of active ingredient solution and internal surface area 44.7 cm^2, given homogeneous distribution, an area-based dose of 5 μg/cm^2 is achieved. After the solvent has evaporated off, the tubes are populated with 5-10 adult dog ticks (Rhipicephalus sanguineus), sealed with a perforated plastic lid and incubated in a horizontal position in the dark at room temperature and ambient humidity. After 48 h, efficacy is determined. To this end, the ticks are knocked to the base of the tube and incubated on a hotplate at 45-50° C. for not more than 5 min. Ticks which remain motionless on the base or move in such an uncoordinated manner that they are unable to deliberately avoid the heat by climbing upwards are considered to be dead or moribund. […] An efficacy of 100% means that all the ticks were dead or moribund. 0% efficacy means that none of the ticks were harmed.

| Compound | efficacy (kill) [1] | pest or weed control at 4 ppm [2] | efficacy [3] | efficacy [4] | efficacy [5] | efficacy (kill) [6] | pest or weed control at 20 ppm [2] | efficacy [7] | efficacy (kill) [8] | efficacy [9] |
| --- | --- | --- | --- | --- | --- | --- | --- | --- | --- | --- |
| CCS(=O)(=O)c1c2ccc(Cl)cc2nn1-c1nc2cc(C(F)(F)F)cnc2n1C [Example I-1, 2-[6-Chloro-3-(ethylsulfonyl)-2H-indazol-2-yl]-3-methyl-6-(trifluoromethyl)-3H-imidazo[4,5-b]pyridine] | 100% | 90% | 100% | 100% |  |  |  |  |  |  |
| CCS(=O)(=O)c1c2cc(Cl)ccc2nn1-c1nc2cc(C(F)(F)F)cnc2n1C [Example I-2, 2-[5-Chloro-3-(ethylsulfonyl)-2H-indazol-2-yl]-3-methyl-6-(trifluoromethyl)-3H-imidazo[4,5-b]pyridine] | 100% | 100% | 100% | 100% | 100% | 80% | 100% |  |  |  |
| CCS(=O)(=O)c1c2ccccc2nn1-c1nc2cc(C(F)(F)F)cnc2n1C [Example I-3] | 100% | 90% | 100% |  |  |  |  | 100% |  |  |
| CCS(=O)(=O)c1c2cccc(Cl)c2nn1-c1nc2cc(C(F)(F)F)cnc2n1C [Example I-4] |  | 90% | 100% |  |  |  |  |  |  |  |
| CCS(=O)(=O)c1c2cc(C(F)(F)F)ccc2nn1-c1nc2cc(C(F)(F)F)cnc2n1C [Example I-5] | 100% | 100% | 100% | 100% | 100% |  |  |  |  |  |
| CCS(=O)(=O)c1c2ccc(C(F)(F)F)cc2nn1-c1nc2cc(C(F)(F)F)cnc2n1C [Example I-6] | 100% | 100% | 100% | 100% | 100% |  | 100% |  | 90% |  |
| CCS(=O)(=O)c1c2c(nn1-c1nc3cc(C(F)(F)F)cnc3n1C)CCCC2 [Example I-10, 2-[3-(Ethylsulfonyl)-4,5,6,7-tetrahydro-2H-indazol-2-yl]-3-methyl-6-(trifluoromethyl)-3H-imidazo[4,5-b]pyridine] | 100% | 100% |  |  | 100% |  |  | 90% |  | 100% |
| CCS(=O)(=O)c1c2c(nn1-c1nc3cc(C(F)(F)F)cnc3n1C)CC(C)(C)CC2 [Example I-11] |  | 100% |  |  |  |  |  | 90% |  |  |
| CCS(=O)(=O)c1c2ccc(C(F)(F)F)cc2nn1-c1nc2cc(C(F)(F)F)ncc2n1C [Example I-12] |  | 100% | 100% | 100% |  |  |  |  |  |  |

— patent US10765116B2, “2-[3-(alkylsulfonyl)-2H-indazol-2-yl]-3H-imidazo[4,5-B]pyridine derivatives and similar compounds as pesticides” (BAYER CROPSCIENCE AKTIENGESELLSCHAFT, priority 2016, dated 2020)
